From patent US9963467B2, “Boronic acid derivatives and therapeutic uses thereof” (Rempex Pharmaceuticals, Inc., priority 2014, dated 2018)

Key:
EC1010 (CMY-6) [1] = experiment: organism not typed; type: cell-based
[2] = tested on: strains of various bacteria that are resistant to aztreonam due to expression of various β-lactamases; experiment: Aztreonam MIC of test strains; type: cell-based; conditions: read-out: Aztreonam MICs of test strains; across the test strains
ec308 (SHV-5) [3] = experiment: Aztreonam potentiation (MPC@4), ec308; type: cell-based; conditions: for AZT MPC4 SHV-5 ec308: BLI with aztreonam at 4 μg/mL
KP1004 (KPC-2) [4] = experiment: Aztreonam potentiation (MPC@4), KP1004; type: cell-based; conditions: read-out: Aztreonam MIC KP1004
KP1009 (CTX-M-15) [5] = experiment: organism not typed; type: cell-based
KP1005 (CTX-M-14) [6] = experiment: Aztreonam potentiation (MPC@4), KP1005; type: cell-based
ECL1002 [7] = experiment: Aztreonam potentiation (MPC@4), ECL1002; type: cell-based
KP1010 (SHV-12) [8] = experiment: Aztreonam potentiation (MPC@4), KP1010; type: cell-based
ec302 (TEM-10) [9] = experiment: Aztreonam potentiation (MPC@4), ec302; type: cell-based
OXA-48 = OXA-48 (Klebsiella pneumoniae, UniProt Q6XEC0); experiment: Ki, nitrocefin cleavage by purified enzyme, OXA-48; type: biochemical; conditions: nitrocefin reporter substrate; read-out: Ki (OXA-48, NCF)
In short: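 Readout: nitrocefin hydrolysis, A490 recorded every 10 sec over 10 min. Enzyme and inhibitor (varied concentrations) preincubated 10 min, RT, in reaction buffer before substrate addition.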

KP1010 (SHV-12) [10] = experiment: Tigemonam potentiation (MPC@4), KP1010; type: cell-based
ec308 (SHV-5) [11] = experiment: Tigemonam potentiation (MPC@4), ec308; type: cell-based
PAM1032/KPC-2 = experiment: Biapenem potentiation MPC64, PAM1032/KPC-2 (efflux proficient); type: cell-based, Pseudomonas aeruginosa; conditions: BLI to decrease MIC of biapenem 64-fold; MexAB-OprM overexpressed
Description: (§1) Efflux of BLIs from Pseudomonas aeruginosa by the MexAB-OprM efflux pump was also evaluated. […] Due to expression of KPC-2 both strains became resistant to biapenem. […] Potency of BLIs to potentiate biapenem in these strains was determined. […] The ratio of MPC64 values for each BLI in PAM1032/KPC-2 (efflux proficient) and PAM1154/KPC-2 (efflux deficient) was determined to generate the Efflux Index (EI).

ec302 (TEM-10) [12] = experiment: Tigemonam potentiation (MPC@4), ec302; type: cell-based
KP1086 (OXA-48) = experiment: Biapenem potentiation (MPC@1), KP1086; conditions: BLI with biapenem at 1 μg/mL
KP1004 (KPC-2) [13] = experiment: Biapenem potentiation (MPC@1), KP1004; conditions: BLI with biapenem at 1 μg/mL
ECL1002 [14] = experiment: Tigemonam potentiation (MPC@4), ECL1002; type: cell-based; conditions: for TIG MPC4 ECL1002: BLI with tigemonam at 4 μg/mL
KP1005 (CTX-M-14) [15] = experiment: Tigemonam potentiation (MPC@4), KP1005; type: cell-based; conditions: for TIG MPC4 CTX-M-14 KP1005: BLI with tigemonam at 4 μg/mL
PAM1154/KPC-2 = experiment: Biapenem potentiation MPC64, PAM1154/KPC-2 (efflux deficient); type: cell-based, Pseudomonas aeruginosa; conditions: BLI to decrease MIC of biapenem 64-fold; lacking MexAB-OprM
Description: as §1

KP1009 (CTX-M-15) [16] = experiment: Tigemonam potentiation (MPC@4), KP1009; type: cell-based; conditions: for TIG MPC4 CTX-M-15 KP1009: BLI with tigemonam at 4 μg/mL
[17] = Intravenous pharmacokinetics; type: in vivo; conditions: rat, plasma; rats, 20 mg/kg, intravenous infusion over 0.5 hours; read-out: Free Cl (converted)
Description: Rats (n=3 per compound) were administered by a single infusion. Intravenous doses were infused over 0.5 hours via an indwelling femoral vein cannula. […] (˜0.3 mL) samples were collected from each rat at designated time points up to 24 hours. Blood samples were centrifuged within 5 min of collection at 12000 g for 5 min to obtain plasma. The plasma samples were stored at −80° C. until analyzed. Data were analyzed using WinNonlin. The doses of all compounds tested were 20 mg/kg.

EC1010 (CMY-6) [18] = experiment: Tigemonam potentiation (MPC@4), EC1010; type: cell-based; conditions: tigemonam alone
[19] = tested on: strains overexpressing class A (ESBL) and class C beta-lactamases; experiment: Tigemonam MIC of test strains; type: cell-based; conditions: across the test strains

Sequence of OXA-48 (Q6XEC0 23-265, looked up, species assumed): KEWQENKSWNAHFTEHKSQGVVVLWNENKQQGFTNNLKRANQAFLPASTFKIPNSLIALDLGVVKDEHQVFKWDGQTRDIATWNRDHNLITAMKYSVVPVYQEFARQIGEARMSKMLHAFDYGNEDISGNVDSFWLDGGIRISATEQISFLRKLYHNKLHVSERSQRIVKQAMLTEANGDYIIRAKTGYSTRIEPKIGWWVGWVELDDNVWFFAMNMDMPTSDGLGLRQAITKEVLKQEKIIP

C[C@H]1[C@H](NC(=O)/C(=N\OC(C)(C)C(=O)O)c2csc(N)n2)C(=O)N1S(=O)(=O)O [Aztreonam, reference compound]
MIC (EC1010 (CMY-6) [1]; read-out: Aztreonam MIC EC1010): > 10 µg/mL | MIC [2]: ≥ 64 µg/mL | MIC (ec308 (SHV-5) [3]; read-out: Aztreonam MIC ec308): > 10 µg/mL | MIC (KP1004 (KPC-2) [4]): > 10 µg/mL | MIC (KP1009 (CTX-M-15) [5]; read-out: Aztreonam MIC KP1009): > 10 µg/mL | MIC (KP1005 (CTX-M-14) [6]; read-out: Aztreonam MIC KP1005): > 10 µg/mL | MIC (ECL1002 [7]; read-out: Aztreonam MIC ECL1002): > 10 µg/mL | MIC (KP1010 (SHV-12) [8]; read-out: Aztreonam MIC KP1010): > 10 µg/mL | MIC (ec302 (TEM-10) [9]; read-out: Aztreonam MIC ec302): > 10 µg/mL

O=CN[C@H]1Cc2cccc(C(=O)O)c2OB1O [F, reference compound]
AZT MPC4 CMY-6 EC1010 (EC1010 (CMY-6) [1]): Y (key: X: MIC of less than 1 ng/mL; Y: MIC of 1 μg/mL to 10 μg/mL; Z: MIC of greater than 10 μg/mL) | Ki (OXA-48): < 1 nM | TIG MPC4 SHV-12 KP1010 (KP1010 (SHV-12) [10]): Y (key: X: MIC of less than 1 ng/mL; Y: MIC of 1 μg/mL to 10 μg/mL; Z: MIC of greater than 10 μg/mL) | TIG MPC4 SHV-5 ec308 (ec308 (SHV-5) [11]): Y (key: X: MIC of less than 1 ng/mL; Y: MIC of 1 μg/mL to 10 μg/mL; Z: MIC of greater than 10 μg/mL) | PAM1032/KPC-2 Biapenem MPC64 (PAM1032/KPC-2): 5 | AZT MPC4 SHV-5 ec308 (ec308 (SHV-5) [3]): Y (MIC of 1 μg/mL to 10 μg/mL) | TIG MPC4 TEM-10 ec302 (ec302 (TEM-10) [12]): Z (key: X: MIC of less than 1 ng/mL; Y: MIC of 1 μg/mL to 10 μg/mL; Z: MIC of greater than 10 μg/mL) | BPM MPC1 OXA-48 KP1086 (KP1086 (OXA-48)): Y (MIC of 1 μg/mL to 10 μg/mL) | AZT MPC4 CTX-M-15 KP1009 (KP1009 (CTX-M-15) [5]): Y (key: X: MIC of less than 1 ng/mL; Y: MIC of 1 μg/mL to 10 μg/mL; Z: MIC of greater than 10 μg/mL) | BPM MPC1 KP1004 KPC-2 (KP1004 (KPC-2) [13]): X (MIC of less than 1 μg/mL) | AZT MPC4 CTX-M-14 KP1005 (KP1005 (CTX-M-14) [6]; BLI with aztreonam at 4 μg/mL): Y (MIC of 1 μg/mL to 10 μg/mL) | TIG MPC4 ECL1002 (ECL1002 [14]): X (MIC of less than 1 μg/mL) | TIG MPC4 CTX-M-14 KP1005 (KP1005 (CTX-M-14) [15]): Y (MIC of 1 μg/mL to 10 μg/mL) | AZT MPC4 ECL1002 (ECL1002 [7]; BLI with aztreonam at 4 μg/mL): Y (MIC of 1 μg/mL to 10 μg/mL) | AZT MPC4 SHV-12 KP1010 (KP1010 (SHV-12) [8]): Y (key: X: MIC of less than 1 ng/mL; Y: MIC of 1 μg/mL to 10 μg/mL; Z: MIC of greater than 10 μg/mL) | PAM1154/KPC-2 Biapenem MPC64 (PAM1154/KPC-2): 1.25 | TIG MPC4 CTX-M-15 KP1009 (KP1009 (CTX-M-15) [16]): Y (MIC of 1 μg/mL to 10 μg/mL) | AZT MPC4 TEM-10 ec302 (ec302 (TEM-10) [9]; BLI with aztreonam at 4 μg/mL): Z (MIC of greater than 10 μg/mL)

O=C(Cc1cccs1)N[C@H]1Cc2cccc(C(=O)O)c2OB1O [I, reference compound]
clearance [17]: 136 mL/min/kg | AZT MPC4 CMY-6 EC1010 (EC1010 (CMY-6) [1]): Y (key: X: MIC of less than 1 ng/mL; Y: MIC of 1 μg/mL to 10 μg/mL; Z: MIC of greater than 10 μg/mL) | TIG MPC4 SHV-12 KP1010 (KP1010 (SHV-12) [10]): X (key: X: MIC of less than 1 μg/mL; Y: MIC of 1 μg/mL to 10 μg/mL; Z: MIC of greater than 10 μg/mL) | TIG MPC4 SHV-5 ec308 (ec308 (SHV-5) [11]): X (key: X: MIC of less than 1 μg/mL; Y: MIC of 1 μg/mL to 10 μg/mL; Z: MIC of greater than 10 μg/mL) | PAM1032/KPC-2 Biapenem MPC64 (PAM1032/KPC-2): 80 | AZT MPC4 SHV-5 ec308 (ec308 (SHV-5) [3]): X (MIC of less than 1 ng/mL) | TIG MPC4 TEM-10 ec302 (ec302 (TEM-10) [12]): Z (key: X: MIC of less than 1 ng/mL; Y: MIC of 1 μg/mL to 10 μg/mL; Z: MIC of greater than 10 μg/mL) | BPM MPC1 OXA-48 KP1086 (KP1086 (OXA-48)): Y (MIC of 1 μg/mL to 10 μg/mL) | AZT MPC4 CTX-M-15 KP1009 (KP1009 (CTX-M-15) [5]): Y (key: X: MIC of less than 1 ng/mL; Y: MIC of 1 μg/mL to 10 μg/mL; Z: MIC of greater than 10 μg/mL) | BPM MPC1 KP1004 KPC-2 (KP1004 (KPC-2) [13]): X (MIC of less than 1 μg/mL) | TIG MPC4 ECL1002 (ECL1002 [14]): X (MIC of less than 1 μg/mL) | TIG MPC4 CTX-M-14 KP1005 (KP1005 (CTX-M-14) [15]): Y (MIC of 1 μg/mL to 10 μg/mL) | AZT MPC4 SHV-12 KP1010 (KP1010 (SHV-12) [8]): X (key: X: MIC of less than 1 ng/mL; Y: MIC of 1 μg/mL to 10 μg/mL; Z: MIC of greater than 10 μg/mL) | TIG MPC4 CTX-M-15 KP1009 (KP1009 (CTX-M-15) [16]): Y (MIC of 1 μg/mL to 10 μg/mL)

CC1(C)[C@H](NC(=O)/C(=N\OCC(=O)O)c2csc(N)n2)C(=O)N1OS(=O)(=O)O [Tigemonam, reference compound]
Tigemonam MIC KP1010 (KP1010 (SHV-12) [10]; tigemonam alone): Z (MIC of greater than 10 μg/mL) | Tigemonam MIC ec308 (ec308 (SHV-5) [11]; tigemonam alone): Z (MIC of greater than 10 μg/mL) | Tigemonam MIC ec302 (ec302 (TEM-10) [12]; tigemonam alone): Z (MIC of greater than 10 μg/mL) | Tigemonam MIC EC1010 (EC1010 (CMY-6) [18]): Z (MIC of greater than 10 μg/mL) | Tigemonam MICs of test strains [19]: ≥ 16 µg/mL | Tigemonam MIC ECL1002 (ECL1002 [14]; tigemonam alone): Z (MIC of greater than 10 μg/mL) | Tigemonam MIC KP1005 (KP1005 (CTX-M-14) [15]; tigemonam alone): Z (MIC of greater than 10 μg/mL) | Tigemonam MIC KP1009 (KP1009 (CTX-M-15) [16]; tigemonam alone): Z (MIC of greater than 10 μg/mL)
